Data: PubChem BioAssay AID1850 (Southern Research Specialized Biocontainment Screening …, 2009)
“And” between values parts separate entries of the source, which are not always exact repeats. Equal values may be shown once.

Test system: Salmonella Typhi PhoP-promoter GFP reporter, fluorescence, 4 h
Test: Inhibition of PhoP regulon, Salmonella typhi GFP reporter cells, confirmation, 4 h (AID 1850)

SMILES	IC50
CC(C)(C)c1ccc(OCCCCCCN2CCNCC2)cc1	69.2 µM
COc1ccc2c(c1OC)C(=O)N(c1ccc(C)cc1)C2=O	143 µM
COc1ccc(CNCCC(c2ccccc2)c2ccc3c(c2)OCO3)cc1 (stereo unspecified)	78.7 µM
COc1ccc(/C=N/Nc2cc(C)nc3ccccc23)cc1	10.4 µM
Cc1ccc(OCC(=O)N/N=C/c2ccc([N+](=O)[O-])o2)cc1	21.9 µM
Clc1ccc(OCCCNCc2ccccc2)c2ccccc12	19.2 µM
O=C(O)c1cn(-c2ccc(F)cc2)c2cc(Cl)c(F)cc2c1=O	83.7 µM
CCOc1cc(CNCCCN2CCOCC2)cc(Br)c1OCC(=O)Nc1cccc(C(F)(F)F)c1	84.6 µM
Cc1ccc(NC(=O)CNCc2ccccc2)cc1Br	52.9 µM
Oc1c(CN2CCN(c3ccccn3)CC2)cc(Cl)c2cccnc12	29.6 µM
c1ccc(Sc2cccc3ccccc23)c(CNC2=NCCN2)c1	68.3 µM
CN(C)CCNC(=O)c1ccc(COc2ccc(Cl)cc2Cl)cc1	125 µM
C#CCOCCOCCOCCNc1nc(N2CCN(C(=O)[C@H](Cc3cc4ccccc4[nH]3)n3cc([C@@H](N)CC(C)C)nn3)CC2)nc(N2CCN(C(=O)[C@H](Cc3cc4ccccc4[nH]3)n3cc([C@@H](N)CC(C)C)nn3)CC2)n1	39.9 µM
OC(c1cc(C(F)(F)F)nc2c(C(F)(F)F)cccc12)C1CCCCN1 (stereo unspecified)	20.3 µM
CN(C)CC/C=C1/c2cc(F)ccc2Sc2ccc(Cl)cc21	65.9 µM
CCCCOc1ccc(CN=C(N)N)cc1Cl	134 µM
O=C(Nc1nnc(-c2cccs2)o1)c1cccc(C(F)(F)F)c1	22.9 µM
OC(CNCCc1ccccc1)COc1ccc(OCC(O)CNCCc2ccccc2)cc1 (stereo unspecified)	35.8 µM
Cc1cc(C)c(OCCCCNCc2ccccc2)c(Cl)c1	74.6 µM
O=C(N/N=C/c1cc([N+](=O)[O-])ccc1O)c1cccc2cc[nH]c12	36.5 µM
Cc1ccc(C(=O)NNC(=S)NC(=O)c2ccccc2)cc1	62.6 µM
Cc1cc([N+](=O)[O-])nn1CC(=O)N/N=C/c1ccccc1O	47.1 µM

SMILES	IC50
OCCN1CCN(C2Cc3cc(Cl)ccc3Sc3ccc(Cl)cc32)CC1 (stereo unspecified) (tested in a mixture with another compound)	34.6 µM
O=C(NC(CO)C(O)c1ccc([N+](=O)[O-])cc1)C(Cl)Cl (stereo unspecified)	5.12 µM
Cc1cccc2sc(N(CCCN(C)C)C(=O)COc3ccc(Cl)cc3)nc12	38.6 µM
N=c1c2c(n(Cc3cccc(Cl)c3)c3c1CCC3)CCCC2	64.2 µM
Cc1cc(N/N=C/c2ccc(F)cc2)nc(NCc2ccccc2)n1	55.2 µM
O=C(N/N=C/c1cc(O)ccc1Br)c1cccnc1	38.5 µM
NC(N)=N/N=C/c1ccc(OCc2ccc(Cl)cc2)cc1	35.6 µM
O=C(CSc1nnc(-c2ccccc2)n1-c1ccc(Cl)cc1)NC1CCS(=O)(=O)C1 (stereo unspecified)	73.8 µM
CCn1cc(C(=O)O)c(=O)c2cc(F)c(N3CCNCC3)cc21	0.27 µM
O=C(CC1NCCc2ccccc21)Nc1ccc(Oc2ccccc2)cc1 (stereo unspecified)	47.3 µM
C#CCOCCOCCOCCNc1nc(N2CCN(C(=O)CCCCCCCCCCNC(=O)Cn3cc(C[C@@H](C)O)nn3)CC2)nc(N2CCN(C(=O)CCCCCCCCCCNC(=O)[C@@H]([C@H](C)CC)n3cc(CCCCCN)nn3)CC2)n1	142 µM
COc1ccc(Nc2nc(NCC3CCCO3)c3ccccc3n2)c(OC)c1 (stereo unspecified)	37 µM
C#CCOCCOCCOCCNc1nc(N2CCN(C(=O)[C@H]([C@@H](C)CC)n3cc([C@@H](N)Cc4ccc(O)cc4)nn3)CC2)nc(N2CCN(C(=O)[C@H](Cc3cc4ccccc4[nH]3)n3cc([C@@H](N)CC(C)C)nn3)CC2)n1	102 µM
CC(Nc1nc(N2CCCC2)nc2ccccc12)c1ccccc1 (stereo unspecified)	69.2 µM
O=C(Nc1cccc([N+](=O)[O-])c1)Nc1cccs1	24.7 µM
CN(C)CCCN(C(=O)CCc1ccccc1)c1nc2ccc(Br)cc2s1	69 µM
O=C(CC(=O)c1cc(Cl)ccc1O)c1ccccc1	19.8 µM
O=C(c1ccc([N+](=O)[O-])o1)N1CCOCC1	76.8 µM
Cc1cc(=O)[nH]c(-n2nc(C)cc2C)n1	75.5 µM
Oc1ccc(C[C@@H]2CNCCN2CCCCC2CCCCC2)cc1	46.8 µM
O=[N+]([O-])c1cc(O)c2ncccc2c1	14.2 µM
CC1CCC(C(C)C)C(OC(=O)Cn2c(-c3ccc(Cl)cc3)[n+](C)c3ccccc32)C1 (stereo unspecified)	50.4 µM

SMILES	IC50
CC1CCc2cc(F)cc3c(=O)c(C(=O)O)cn1c23 (stereo unspecified)	6.15 µM
CCCCOc1ccc(Br)cc1CSC(=N)N	35 µM
O=C(CN1C2=NCCCN2c2ccccc21)c1ccc(Br)s1	147 µM
CCn1cc(C(=O)O)c(=O)c2cc(F)c(N3CCN(C(=S)Nc4ccc(OC)cc4)CC3)cc21	5.79 µM
Cc1cc2oc(=O)cc(CN3CCN(C/C=C/c4ccccc4)CC3)c2cc1O	80.5 µM
Cc1nc(N)c(Cc2ccc(Cl)cc2Cl)c(N)n1	44.2 µM
CN(C)CCCN1c2ccccc2CCc2ccc(Cl)cc21	102 µM
Oc1c(CN2CCOCC2)cc(COCc2ccccc2)c2cccnc12	38.5 µM
Cc1ccc(Cn2c(=N)n(CC(O)COc3ccccc3)c3ccccc32)cc1 (stereo unspecified)	52.3 µM
CCS(=O)(=O)c1ccc2oc(=O)c(/C=C(\O)c3ccc(Cl)cc3)nc2c1	76.1 µM
S=C(Nc1cc(Cl)cc(Cl)c1)NC1CCN(Cc2ccccc2)CC1	80.8 µM
C#CCOCCOCCOCCNc1nc(N2CCN(C(=O)CCCCCCCCCCNC(=O)Cn3cc(CCCCCN)nn3)CC2)nc(N2CCN(C(=O)CCCCCCCCCCNC(=O)[C@H]([C@@H](C)CC)n3cc(CCCCN=C(N)N)nn3)CC2)n1	28.3 µM
O=C(O)c1cn(C2CC2)c2cc(N3CCN(S(=O)(=O)c4ccc5c(c4)OCCO5)CC3)c(F)cc2c1=O	7.56 µM
CN(C)CC/C=C1\c2ccccc2Sc2ccc(Cl)cc21	72.2 µM
Oc1ccc(/C=N/Nc2nccnc2Cl)c(O)c1	70.4 µM
O=C(N/N=C/c1ccccc1O)c1ccncc1	35.9 µM
COc1ccc(S(=O)(=O)N2CN3CCN(C3)C2)cc1	144 µM
Oc1cc(Cl)ccc1Oc1ccc(Cl)cc1Cl	0.67 µM
O=C(Nc1nnc(-c2cccs2)o1)c1cccc(Oc2ccccc2)c1	61.1 µM
CN(C)[C@@H]1C(=O)C(C(N)=O)=C(O)[C@@]2(O)C(=O)C3=C(O)c4c(O)cccc4[C@@](C)(O)C3[C@H](O)C12 (stereo partly specified)	1.03 µM and 4.02 µM
CN(C)c1ccc(Nc2nc(N)c3ccccc3n2)cc1	30.9 µM
Cc1cc(C)c2sc(N(CCCN(C)C)C(=O)COc3ccc(Cl)cc3)nc2c1	30.8 µM

SMILES	IC50
COc1cc2c3cc1Oc1cc(ccc1O)C[C@@H]1c4c(cc(OC)c(O)c4Oc4ccc(cc4)C[C@H]3N(C)CC2)CCN1C	144 µM
OCCN1CCN(CCCN2c3ccccc3Sc3ccc(Cl)cc32)CC1	69.2 µM
CCCCn1c(NS(=O)(=O)c2ccc(C)cc2)c(S(=O)(=O)c2ccccc2)c2nc3ccccc3nc21	7.98 µM
NC1=NC[C@H](Cc2ccc(O)cc2)N1CCC12CC3CC(CC(C3)C1)C2	35.8 µM
O=C(Oc1c(Cl)cc(Cl)c2cccnc12)c1ccco1	14.6 µM
O=C(Nc1nc(-c2ccccn2)cs1)c1ccc(Br)s1	23.9 µM
O=C(CC(=O)c1c(F)cccc1Cl)c1ccccc1O	50.8 µM
CNCCCC1Sc2ccccc2Oc2ccccc21 (stereo unspecified)	98.5 µM
CN(C)C1C(=O)C(C(N)=O)=C(O)C2(O)C(=O)C3=C(O)c4c(O)cccc4C(C)(O)C3CC12 (stereo unspecified)	3.07 µM
COc1ccc(Nc2ccnc3ccccc23)cc1	52.2 µM
Cc1ncc(CC(=O)n2cc(C(=O)c3cc(Cl)ccc3O)cn2)s1	83 µM
C(=N/Nc1nccs1)/c1cccnc1	46.4 µM
COc1cccc(Nc2nc(NCCO)c3ccccc3n2)c1	19.9 µM
C=CC1=C(C(=O)O)N2C(=O)[C@@H](NC(=O)/C(=N\O)c3csc(N)n3)[C@H]2SC1 (stereo in doubt)	19.1 µM
O=C(O)c1sccc1Oc1ccc(F)cc1[N+](=O)[O-]	88.7 µM
N=c1c2c(n(Cc3ccc(Cl)cc3)c3c1CCC3)CCC2	80.3 µM
COc1cc([N+](=O)[O-])cc(/C=N/NC(=O)CSc2ccccn2)c1O	127 µM
Cc1ccc2sc(N(CCCN(C)C)C(=O)c3ccc(Br)s3)nc2c1C	36.8 µM
CCCN(CCC)CCNC(=O)C1CCN(Cc2nc(-c3ccc(Cl)cc3)oc2C)CC1	148 µM
C#CCOCCOCCOCCNc1nc(N2CCN(C(=O)CCCCCCCCCCNC(=O)[C@H](CCCCN)n3cc(C[C@@H](C)CC)nn3)CC2)nc(N2CCN(C(=O)CCCCCCCCCCNC(=O)[C@H](CCCN=C(N)N)n3cc(C[C@@H](C)CC)nn3)CC2)n1	33.3 µM
Cc1ccc2c(c1)N/C(=C(\C=C(/Cl)[N+](=O)[O-])[N+](=O)[O-])N2	99.7 µM
C#CCOCCOCCOCCNc1nc(N2CCN(C(=O)C(Cc3ccc(O)cc3)n3cc(C(N)CC(C)C)nn3)CC2)nc(N2CCN(C(=O)C(Cc3cc4ccccc4[nH]3)n3cc(C(N)Cc4ccc(O)cc4)nn3)CC2)n1 (stereo unspecified)	130 µM

SMILES	IC50
CCc1ccc(-c2nn(-c3ccccc3)cc2CSC(=N)N)cc1	32.7 µM
CCOc1ccc(-c2cc(C)[n+](CCN(CC)CC)c(-c3ccc(OCC)cc3)c2)cc1	37.5 µM
Clc1cccc(/C=N\Nc2nccs2)c1	18.6 µM
S=C(Nc1ccc(Cl)c(Cl)c1)NC1CCN(Cc2ccccc2)CC1	33.8 µM
Fc1ccc(Nc2nc(NCc3ccco3)c3ccccc3n2)cc1	3.81 µM
O=C(C[n+]1cc(-c2ccc(Cl)cc2)n2c1CCC2)Nc1nc(-c2ccccc2)cs1	22 µM
C=CCNc1ncnc2c1[nH]c1ccc(C)cc12	18.9 µM
O=C(NC1CCCC1)c1ccc(Br)s1	20.3 µM
CS(=O)(=O)c1ccc([C@@H](O)[C@@H](CF)NC(=O)C(Cl)Cl)cc1	5.21 µM
Cc1ccc(NNS(=O)(=O)c2ccc(C)cc2)cc1	53.7 µM
CN(C)CCCN(C(=O)c1ccc2c(c1)CCCC2)c1nc2ccc(Cl)cc2s1	83.7 µM
Clc1c(OCCCn2ccnc2)ccc2ccccc12	39.7 µM
Nc1nc(F)nc2c1ncn2[C@@H]1O[C@H](CO)[C@@H](O)[C@H]1O	32.9 µM
C[C@H]1O[C@@H](n2cc(F)c(=O)[nH]c2=O)[C@H](O)[C@@H]1O	32.2 µM
COC(=O)C(C)NC(=S)N1CCN(c2c(F)cc3c(=O)c(C(=O)O)cn(C4CC4)c3c2OC)CC1C (stereo unspecified)	17.1 µM
Cn1c(-c2ccc3c(c2)OCO3)cnc1NCc1ccc(Cl)cc1	81.8 µM
Nc1cc2c3c(cccc3c1)C(=O)N(CCN1CCCC1)C2=O	83.8 µM
CCc1ccc(N2CC(C(=O)N/N=C/c3cc([N+](=O)[O-])ccc3O)CC2=O)cc1 (stereo unspecified)	55.8 µM
